PMC8312697, “Mechanistic Investigations Support Liver Safety of Ubrogepant” (Toxicological Sciences, 2020)

What was measured:
CYP3A4 = biological target: T1, CYP3A4 (Homo sapiens, UniProt P08684); assay: HEK293/CYP3A4 assay of Nrf2 stabilization and CYP3A4 degradation; type: cell-based; settings: HEK293 cells with inducible CYP3A4, Western blot
T1 construct: expressed in transfected cells; host or cells: HEK293 Flp-In host cell line (Invitrogen/ThermoFisher Flp-In T-REx system)
Description: Specifically, these assays evaluated the potential of the 3 different CGRP receptor antagonists to form reactive metabolites that promote the stabilization of Nrf2 or covalently bind to CYP3A4, triggering its subsequent time-dependent degradation, as assessed by Western blot. To seek further confirmatory evidence for reactive metabolite formation, a HEK293 cell line expressing doxycycline inducible CYP3A4 P450 enzyme expression construct with a Flag tag epitope fused to the C-terminus was constructed and cloned using the Invitrogen/ThermoFisher Scientific Flp-In T-TEx system and the HEK293 Flp-In host cell line per standard protocol. […] Alternatively, this simplified single CYP test model might not allow for Nrf2 stabilization if sufficient quantities of the chemically reactive metabolite cannot be generated by CYP3A4, or cannot escape the catalytic site of CYP3A4, which would appear on Western blot using anti-Flag antibody as time-dependent CYP3A4 degradation.

monkeys = assay: Conventional nonclinical toxicology study, NHP; settings: 9M NHP
Description: Conventional animal toxicology studies in rats and monkeys were performed by Merck & Co, Inc (West Point, Pennsylvania).

human hepatocytes = assay: Covalent protein binding in human hepatocytes / reactive metabolite body burden; type: in vitro ADME; settings: for Projected body burden from covalent-binding studies: covalent protein binding × dose, telcagepant 560 mg, MK-3207 80 mg, ubrogepant 200 mg; for covalent protein binding: radioactivity bound in human hepatocytes
Description: The “body burden” is a quantitative estimate of reactive metabolite exposure that was determined for each drug based on in vitro covalent protein binding of radioactivity in human hepatocytes (in pmol equivalents/mg) multiplied by a clinically effective daily dose (in mg/day). Detailed methods used in the in vitro human hepatocyte covalent-binding experiments have been reported by [Nakayama et al. (2009)].

HepG2 cells = assay: Oxidative stress assay (ROS, DHE fluorescence); type: cell-based, human
Description: Three independent studies in triplicate were conducted on HepG2 cells, and two independent studies in triplicate were conducted on primary human hepatocytes.
(§1) To assess the potential for ubrogepant to induce oxidative stress, assays to measure formation of reactive oxygen species (ROS) were conducted by Cyprotex. HepG2 cells were cultured in triplicate with ubrogepant for 6 or 24 hours at concentrations ranging from 0.01 – 150 μM, and ROS formation was assayed by DHE fluorescence assay. HepG2 cells have reduced metabolic activity relative to primary human hepatocytes.^3,4 Three independent studies in triplicate were conducted on HepG2 cells.
as §1, with “MK-3207” for “ubrogepant”, “ROS” for “reactive oxygen species (ROS)”, “μM” for “μM,”, “conducted.” for “conducted on HepG2 cells.”

T1 sequence (P08684 whole entry): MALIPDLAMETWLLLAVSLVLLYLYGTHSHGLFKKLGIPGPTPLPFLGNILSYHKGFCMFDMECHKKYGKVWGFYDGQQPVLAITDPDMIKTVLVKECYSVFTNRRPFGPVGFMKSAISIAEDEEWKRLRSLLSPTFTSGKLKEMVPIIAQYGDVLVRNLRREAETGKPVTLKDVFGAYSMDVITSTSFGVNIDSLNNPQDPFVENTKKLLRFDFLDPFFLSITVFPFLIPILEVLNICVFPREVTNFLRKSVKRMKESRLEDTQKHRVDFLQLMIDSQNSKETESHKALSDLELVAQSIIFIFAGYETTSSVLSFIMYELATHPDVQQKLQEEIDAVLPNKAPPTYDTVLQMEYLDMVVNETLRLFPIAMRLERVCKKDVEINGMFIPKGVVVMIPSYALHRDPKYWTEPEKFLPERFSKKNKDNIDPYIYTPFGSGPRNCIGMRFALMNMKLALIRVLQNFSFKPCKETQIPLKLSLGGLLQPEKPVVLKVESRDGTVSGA

Compound | formation of reactive metabolites that covalently bind to CYP3A4 and result in its degradation (CYP3A4) | Pivotal conventional nonclinical toxicology study liver findings (monkeys) | exposure margin (monkeys) | Projected body burden from covalent-binding studies (human hepatocytes) | covalent protein binding (human hepatocytes) | induction of oxidative stress (ROS formation) (HepG2 cells; HepG2, 6-hour incubation) | induction of oxidative stress (ROS formation) (HepG2 cells; HepG2, 24-hour incubation)
O=C(CN1C(=O)C2(CCCC2)NC[C@H]1c1cc(F)cc(F)c1)Nc1ccc2c(c1)C[C@@]1(C2)C(=O)Nc2ncccc21 [MK-3207] | formed reactive metabolites that covalently bind to CYP3A4 and result in its degradation | no liver safety signal | 4 × | 14 720 | 184 pmol equivalents/mg | not evident | modest induction of oxidative stress
O=C(N[C@@H]1CC[C@@H](c2cccc(F)c2F)CN(CC(F)(F)F)C1=O)N1CCC(n2c(=O)[nH]c3ncccc32)CC1 [Telcagepant] | did not | no liver safety signal | 7 × | 14600 | 26 pmol equivalents/mg | – | modest induction of oxidative stress
C[C@@H]1[C@H](c2ccccc2)C[C@H](NC(=O)c2cnc3c(c2)C[C@@]2(C3)C(=O)Nc3ncccc32)C(=O)N1CC(F)(F)F [Ubrogepant] | did not | no liver safety signal | 163 × | 4600 | 23 pmol equivalents/mg | not evident | modest induction of oxidative stress
